According to ChEMBL document CHEMBL5674860, “Optimized Dual-Glo Assay to identify co-culture-induced drug vulnerabilities in 3D CRC models” (2024):

Legend:
Assay type in all cases: functional, Homo sapiens
Set-up in all cases: dose or concentration left out as unconfirmed
Colon cancer organoid [1] = experiment: Optimized Dual-Glo assay to identify co-culture induced drug vulnerabilities using donated chemical probes and chemogenomics kinase set in O20 CRC organoid and F20 CAF mono and co-culture. […] Cell viability is reported both mono and co-culture models.
Colon cancer organoid [2] = experiment: Optimized Dual-Glo assay to identify co-culture induced drug vulnerabilities using donated chemical probes and chemogenomics kinase set in O06 CRC organoid and F06 CAF mono and co-culture. […] Cell viability is reported both mono and co-culture models.
Colon cancer organoid [3] = experiment: Optimized Dual-Glo assay to identify co-culture induced drug vulnerabilities using donated chemical probes and chemogenomics kinase set in O14 CRC organoid and F14 CAF mono and co-culture. […] Cell viability is reported both mono and co-culture models.
[4] = Culture type Co-Culture, Transduced with Lucferase2-P2A-EGFP lentivirus
[5] = Culture type Co-Culture, Transduced with Renilla-dsRed lentivirus
[6] = Culture type Mono-Culture, Transduced with Lucferase2-P2A-EGFP lentivirus
[7] = Culture type Mono-Culture, Transduced with Renilla-dsRed lentivirus

SMILES	Cell Viability (Colon cancer organoid [1]; [4]) [%]	Cell Viability (Colon cancer organoid [1]; [5]) [%]	Cell Viability (Colon cancer organoid [1]; [6]) [%]	Cell Viability (Colon cancer organoid [1]; [7]) [%]	Cell Viability (Colon cancer organoid [2]; [4]) [%]	Cell Viability (Colon cancer organoid [2]; [5]) [%]	Cell Viability (Colon cancer organoid [2]; [6]) [%]	Cell Viability (Colon cancer organoid [2]; [7]) [%]	Cell Viability (Colon cancer organoid [3]; [4]) [%]	Cell Viability (Colon cancer organoid [3]; [5]) [%]	Cell Viability (Colon cancer organoid [3]; [6]) [%]	Cell Viability (Colon cancer organoid [3]; [7]) [%]
CCn1c(-c2nc3cc(C(=O)N4CCCC(N)C4)ccc3n2C)cc2ccccc21.Cl (stereo not drawn)	132.709	136.72	106.473	96.2054	115.054	117.733	118.281	112.415	85.5466	126.887	120.87	100.943
CC(C)[C@H](C(=O)Nc1ccc(C(=O)NO)cc1)c1ccccc1 [AR-42]	13.9159	352.85	21.6913	192.04	8.004	640.047	17.2646	486.211	19.466	585.967	17.1608	305.591
Cc1cc(C)cc([C@H]2c3cc(C)ccc3NC(=O)CN2C(=O)c2ccc(Br)s2)c1	134.503	98.7461	124.059	79.4319	94.0417	115.465	159.24	104.104	84.3524	110.086	124.101	91.0337
CN(C)[C@@H]1CCN(c2cc(-c3ccccc3)nc3ccnn23)C1 [(R)-ZINC-3573]	97.0418	99.7993	84.3174	93.0838	122.992	121.371	72.8757	94.4779	103.063	100.336	115.069	113.962
CC(C)N(CCCNC(=O)Nc1ccc(C(C)(C)C)cc1)C[C@H]1O[C@@H](n2cc(Br)c3c(N)ncnc32)[C@H](O)[C@@H]1O	59.1388	110.156	82.1777	84.781	62.4885	97.8527	76.7332	88.3272	69.7796	119.823	60.0766	78.3641
Cn1cc(CCn2cnc(-c3cnn(C)c3)c2-c2ccc(C#N)cc2)cn1	162.016	107.326	101.421	89.845	101.212	117.261	137.811	99.9578	112.655	89.8106	89.6485	97.1773
O=C(NOCC1CC1)c1ccc(F)c(F)c1Nc1ccc(I)cc1Cl [CI-1040]	43.8229	195.336	27.7103	59.0843	38.2974	73.8424	7.023	67.7326	16.7737	86.2158	10.461	42.9063
Cc1ccc(-c2cnc([C@@]3(O)CC[C@H](C(=O)O)C(C)(C)C3)s2)cc1Nc1cccc(C(F)(F)F)n1 [MRL-SYKi-NC]	106.503	131.597	144.144	94.9642	103.411	158.333	78.37	87.8946	89.1631	98.4974	85.8631	77.2403
CC(C)(O)c1cncc(-c2nc3ccc(F)cc3n2C2CC2)c1 [MSD-CYP11B2]	80.0796	128.543	82.8695	83.5223	83.611	134.058	92.3684	91.4752	60.604	97.9336	96.2618	98.7246
CC(C)(O)[C@H](F)CN1Cc2cc(NC(=O)c3cnn4cccnc34)c(N3CCOCC3)cc2C1=O	123.767	88.3121	99.4921	83.0265	120.796	89.8431	75.3772	93.3836	134.835	74.5238	106.331	78.3332
CCN(CCO)CCCOc1ccc2c(Nc3cc(CC(=O)Nc4cccc(F)c4)[nH]n3)ncnc2c1 [DEFOSBARASERTIB]	5.365	225.013	11.3206	105.29	10.7234	183.999	3.3988	94.753	15.638	174.95	26.1499	95.9515
CN([C@@H]1CCc2c(CC(=O)O)c3cc(S(C)(=O)=O)ccc3n2C1)S(=O)(=O)c1ccc(F)cc1 [CRTH2-negative-control]	107.561	126.69	138.147	108.987	107.688	114.368	103.342	104.475	89.9276	115.062	117.685	97.6178
Cc1ccccc1Oc1cc(-n2c(=O)cc(C(F)(F)F)[nH]c2=O)c2ccccc2c1Cl [BAY-069]	83.88	119.466	87.9837	109.318	128.819	153.89	114.766	111.149	114.551	130.948	135.188	102.99
O=C(NCc1ccccc1)c1ccc(S(=O)(=O)NCc2ccccc2)cc1	89.1581	96.8328	97.877	137.118	120.089	107.944	199.391	148.571	77.1762	97.8485	125.216	99.6349
